≈ marks a conversion by molar mass, not a printed value. Read-outs that look alike come from different tables or passages of the source.
Experiments:
B. cenocepacia J2315 = test: MIC, 2-fold microdilution, resazurin method; assay type: cell-based, Burkholderia cenocepacia; details: for MIC: Burkholderia cenocepacia; for activity compared with C109, in words: SAR statements, against both bacteria and the purified enzyme
Description: (§1) Burkholderia cenocepacia strains, Escherichia coli ATCC 25922, Pseudomonas aeruginosa PAO1, and Staphylococcus aureus ATCC 25923 were grown in Luria-Bertani (LB) medium (Difco), if not differently specified, with shaking at 200 rpm, or on LB agar, at 37°C.
(§2) The microtiter plates were incubated at 37°C for 48 (for B. cenocepacia) or 24 h (for all the other strains) and growth was determined by the resazurin method (Martin et al., [2006]). A solution of resazurin sodium salt (Sigma Aldrich) was prepared at 0.01% in distilled water and filter-sterilized. Thirty microliter of resazurin solution were added to each well after 1 or 2 days of incubation at 37°C, and the microtiters were re-incubated at the same temperature for 4 h. The MIC was defined as the lowest concentration of the drug that prevented a change in color from blue to pink, which indicates bacterial growth.
(§3) Three independent biological replicates were used for each MIC determination.

[1] = target: Burkholderia cenocepacia purified FtsZ protein (Burkholderia cenocepacia, UniProt B4E5Y7); test: biochemical; assay type: biochemical; details: for Inhibition of Bc FtsZ At 100 μM: 100 μM compound; for Inhibition of Bc FtsZ At 100 μM / Inhibits B. cenocepacia FtsZ GTPase at 100µM?: Yes/No; for Inhibits B. cenocepacia FtsZ GTPase at 100µM?: Supplementary Table 1
Chain of Burkholderia cenocepacia purified FtsZ protein (B4E5Y7 entry or part of it): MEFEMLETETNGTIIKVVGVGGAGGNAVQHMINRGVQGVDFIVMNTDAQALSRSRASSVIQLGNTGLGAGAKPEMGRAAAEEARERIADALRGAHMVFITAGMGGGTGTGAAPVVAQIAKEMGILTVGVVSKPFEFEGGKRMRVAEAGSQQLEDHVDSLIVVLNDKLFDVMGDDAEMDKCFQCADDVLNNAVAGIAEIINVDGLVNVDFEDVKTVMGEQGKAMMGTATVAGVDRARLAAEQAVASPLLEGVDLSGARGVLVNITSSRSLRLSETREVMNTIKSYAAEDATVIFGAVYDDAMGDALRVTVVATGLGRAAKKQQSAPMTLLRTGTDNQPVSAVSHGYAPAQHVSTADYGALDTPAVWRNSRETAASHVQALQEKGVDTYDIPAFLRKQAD
Description: All the recombinant FtsZ proteins were expressed at 20°C overnight in E. coli BL21(DE3) cells, upon induction with 0.5 mM IPTG, and purified using the same protocol assessed for the wild-type B. cenocepacia FtsZ (Hogan et al., [2018]).
GTPase enzyme activity was determined using a pyruvate kinase/L-lactic dehydrogenase (PK/LDH) spectrophotometric coupled assay (Ingerman and Nunnari, [2005]). The assays were performed at 30°C, in a reaction mixture containing […] Hepes pH 7.5, 5 mM MgCl2, 5 mM KCl, 10 U PK/LDH, 0.25 mM NADH, 0.25 mM PEP, and 5–10 μM FtsZ, and initiated by the addition of 0.5 mM GTP. Alternatively, GTPase activity was determined by measuring the release of phosphate using the malachite green assay (Baykov et al., [1988]).
(1) A[I]=A[0]×(1-[I]/[I]+IC50)
where A[I] is the enzyme activity at inhibitor concentration [I] and A[0] is the enzyme activity without inhibitor.

E. coli ATCC 25922 = test: MIC, 2-fold microdilution, resazurin method; assay type: cell-based; details: Escherichia coli, ATCC25922
Description: as §1, §2, §3

P. aeruginosa PAO1 = test: MIC, 2-fold microdilution, resazurin method; assay type: cell-based; details: Pseudomonas aeruginosa, PAO1
Description: as §1, §2, §3

S. aureus ATCC 25923 = test: MIC, 2-fold microdilution, resazurin method; assay type: cell-based, Staphylococcus aureus; details: for MIC: Staphylococcus aureus, ATCC25923; for spectrum of activity, in words: S. aureus vs Gram-negative species
Description: as §1, §2, §3

[2] = J2315, LB, 48 h, read-out: MIC B. cenocepacia J2315
[3] = J2315, Supplementary Table 1, read-out: MIC (µg/ml) B. cenocepacia J2315
[4] = LB, 24 h, read-out: MIC E. coli 25922
[5] = Supplementary Table 1, read-out: MIC (µg/ml) E. coli 25922
[6] = LB, 24 h, read-out: MIC P. aeruginosa PAO1
[7] = Supplementary Table 1, read-out: MIC (µg/ml) P. aeruginosa PAO1
[8] = LB, 24 h, read-out: MIC S. aureus 25923
[9] = Supplementary Table 1, read-out: MIC (µg/ml) S. aureus 25923

Row | Compound | MIC (B. cenocepacia J2315; [2]) [µg/mL] | MIC (B. cenocepacia J2315; [3]) [µg/mL] | IC50 [1] [µM] | Inhibition of Bc FtsZ At 100 μM [1] | Inhibits B. cenocepacia FtsZ GTPase at 100µM? [1] | melting point [°C] | MIC (E. coli ATCC 25922; [4]) [µg/mL] | MIC (E. coli ATCC 25922; [5]) [µg/mL] | MIC (P. aeruginosa PAO1; [6]) [µg/mL] | MIC (P. aeruginosa PAO1; [7]) [µg/mL] | MIC (S. aureus ATCC 25923; [8]) [µg/mL] | MIC (S. aureus ATCC 25923; [9]) [µg/mL] | activity compared with C109, in words (B. cenocepacia J2315) | spectrum of activity, in words (S. aureus ATCC 25923) | MIC (B. cenocepacia J2315; J2315, 48 h, read-out: MIC B. cenocepacia J2315) [µg/mL] | MIC (B. cenocepacia J2315; J2315, read-out: MIC (µg/ml) B. cenocepacia J2315) [µg/mL]
1 | CN(C)C(=S)Sc1ccc2nsnc2c1[N+](=O)[O-] [compound 10126130] | > 128 | > 128 | 10 | Yes | Yes | 137 to 139 | 512 (≈ 1700 µM) | 512 (≈ 1700 µM) | > 128 | > 128 | 32 (≈ 107 µM) | 32 (≈ 107 µM) | – | – | – | –
2 | CCOC(=O)CCSc1ccc2nsnc2c1[N+](=O)[O-] [compound 10226047] | > 512 | > 512 | – | No | No | 89 to 91 | > 512 | > 512 | > 128 | > 128 | > 512 | > 512 | completely loss of activity | – | – | –
3 | N#CSc1cc(SC#N)c2nsnc2c1[N+](=O)[O-] [compound 10626056] | > 64 | > 64 | 52 | Yes | Yes | 167 to 169 | > 512 | > 512 | > 128 | > 128 | 8 (≈ 27.1 µM) | 8 (≈ 27.1 µM) | – | showed activity only against S. aureus | – | –
4 | CCCCCSc1ccc2nsnc2c1[N+](=O)[O-] [compound 10726015] | > 64 | > 64 | – | No | No | 116 to 118 | > 512 | > 512 | > 128 | > 128 | 512 (≈ 1810 µM) | 512 (≈ 1810 µM) | – | – | – | –
5 | N#CSc1cc(-c2ccc([N+](=O)[O-])cc2)c2nsnc2c1[N+](=O)[O-] [compound 11026176] | – | – | 17 | Yes | Yes | – | > 512 | > 512 | > 128 | > 128 | 4 (≈ 11.1 µM) | 4 (≈ 11.1 µM) | – | showed activity only against S. aureus | > 512 | > 512
6 | CCOc1cc(SC#N)c2nsnc2c1[N+](=O)[O-] [compound 11026177] | > 512 | > 512 | 19 | Yes | Yes | 128 to 129 | > 512 | > 512 | 64 (≈ 227 µM) | 64 (≈ 227 µM) | 4 (≈ 14.2 µM) | 4 (≈ 14.2 µM) | – | showed activity only against S. aureus | – | –
7 | COc1cc(SC#N)c2nsnc2c1[N+](=O)[O-] [compound 11126009] | > 128 | > 128 | 4 | Yes | Yes | 143 to 145 | > 512 | > 512 | > 128 | > 128 | 8 (≈ 29.8 µM) | 8 (≈ 29.8 µM) | – | showed activity only against S. aureus | – | –
8 | CC(C)Oc1cc(SC#N)c2nsnc2c1[N+](=O)[O-] [compound 11126010] | > 128 | > 128 | 15 | Yes | Yes | 116 to 118 | > 512 | > 512 | > 128 | > 128 | 4 (≈ 13.5 µM) | 4 (≈ 13.5 µM) | – | showed activity only against S. aureus | – | –
9 | O=[N+]([O-])c1c(SC(=S)N2CCSCC2)ccc2nsnc12 [compound 11126015] | > 128 | > 128 | 36 | Yes | Yes | 140 to 142 | > 512 | > 512 | > 128 | > 128 | 32 (≈ 89.3 µM) | 32 (≈ 89.3 µM) | – | showed activity only against S. aureus | – | –
10 | O=C(O)CSc1ccc2nsnc2c1[N+](=O)[O-] [compound 11426177] | > 128 | > 128 | – | No | No | 215 to 217 | > 512 | > 512 | – | – | 256 (≈ 944 µM) | 256 (≈ 944 µM) | not active against B. cenocepacia | – | – | –
11 | CCOC(=O)COc1ccc2nsnc2c1[N+](=O)[O-] [compound 11726041] | > 256 | > 256 | – | No | No | 131 to 133 | > 512 | > 512 | – | – | > 256 | > 256 | completely loss of activity | – | – | –
12 | CCOC(=O)CNc1ccc2nsnc2c1[N+](=O)[O-] [compound 11726042] | > 256 | > 256 | – | No | No | 169 to 171 | > 512 | > 512 | – | – | > 256 | > 256 | completely loss of activity | – | – | –
13 | O=[N+]([O-])c1c(Sc2ncc[nH]2)ccc2nsnc12 [compound 11726256] | 128 (≈ 458 µM) | 256 (≈ 917 µM) | > 100 | – | Yes | 213 to 215 | 128 (≈ 458 µM) | 128 (≈ 458 µM) | > 256 | > 256 | 8 (≈ 28.6 µM) | 8 (≈ 28.6 µM) | – | showed activity only against S. aureus | – | –
14 | COC(=O)C[S+]([O-])c1ccc2nsnc2c1[N+](=O)[O-] (stereo not drawn) [compound 11726257] | 16 (≈ 53.1 µM) | 16 (≈ 53.1 µM) | 3 | Yes | Yes | 179 to 181 | 8 (≈ 26.6 µM) | 8 (≈ 26.6 µM) | 128 (≈ 425 µM) | 128 (≈ 425 µM) | 8 (≈ 26.6 µM) | 8 (≈ 26.6 µM) | activity on B. cenocepacia similar to C109 | – | – | –
15 | COC(=O)CSc1cc(SCC(=O)OC)c2nsnc2c1[N+](=O)[O-] [compound 11726258] | 256 (≈ 657 µM) | 256 (≈ 657 µM) | 15 | Yes | Yes | 141 to 143 | > 256 | > 256 | > 256 | > 256 | 256 (≈ 657 µM) | 256 (≈ 657 µM) | – | – | – | –
16 | COC(=O)CS(=O)(=O)c1ccc2nsnc2c1[N+](=O)[O-] [compound 11826109] | 256 (≈ 807 µM) | 256 (≈ 807 µM) | 30 | Yes | Yes | 123 to 125 | 128 (≈ 403 µM) | 128 (≈ 403 µM) | > 256 | > 256 | 16 (≈ 50.4 µM) | 16 (≈ 50.4 µM) | loss of activity | – | – | –

Source: PMC7154053, “Chemical, Metabolic, and Cellular Characterization of a FtsZ Inhibitor Effective Against Burkholderia cenocepacia” (Frontiers in Microbiology, 2020)
